Experimental findings from BindingDB's records for patent US20250289799 (Jiangsu Yahong Meditech Co., 2025) are described below.

As usually defined, the pIC50 is the IC50 on a negative log10 scale, so that one unit is a factor of ten.

pIC50: −log10 of the molar value.

For this test, the target named is Ubiquitin carboxyl-terminal hydrolase 1/WD repeat-containing protein 48 (Homo sapiens, UniProt O94782+Q8TAF3). Put plainly: In Vitro USP1  Inhibitory Activity. The procedure:
Experimental Methods1) Preparation of 1× assay buffer: 1× assay buffer (modified Tris buffer) was prepared;2) Compound dilution: The compound was transferred to the assay plate by Echo.

Ubiquitin carboxyl-terminal hydrolase 1/WD repeat-containing protein 48, sequence (O94782 whole entry): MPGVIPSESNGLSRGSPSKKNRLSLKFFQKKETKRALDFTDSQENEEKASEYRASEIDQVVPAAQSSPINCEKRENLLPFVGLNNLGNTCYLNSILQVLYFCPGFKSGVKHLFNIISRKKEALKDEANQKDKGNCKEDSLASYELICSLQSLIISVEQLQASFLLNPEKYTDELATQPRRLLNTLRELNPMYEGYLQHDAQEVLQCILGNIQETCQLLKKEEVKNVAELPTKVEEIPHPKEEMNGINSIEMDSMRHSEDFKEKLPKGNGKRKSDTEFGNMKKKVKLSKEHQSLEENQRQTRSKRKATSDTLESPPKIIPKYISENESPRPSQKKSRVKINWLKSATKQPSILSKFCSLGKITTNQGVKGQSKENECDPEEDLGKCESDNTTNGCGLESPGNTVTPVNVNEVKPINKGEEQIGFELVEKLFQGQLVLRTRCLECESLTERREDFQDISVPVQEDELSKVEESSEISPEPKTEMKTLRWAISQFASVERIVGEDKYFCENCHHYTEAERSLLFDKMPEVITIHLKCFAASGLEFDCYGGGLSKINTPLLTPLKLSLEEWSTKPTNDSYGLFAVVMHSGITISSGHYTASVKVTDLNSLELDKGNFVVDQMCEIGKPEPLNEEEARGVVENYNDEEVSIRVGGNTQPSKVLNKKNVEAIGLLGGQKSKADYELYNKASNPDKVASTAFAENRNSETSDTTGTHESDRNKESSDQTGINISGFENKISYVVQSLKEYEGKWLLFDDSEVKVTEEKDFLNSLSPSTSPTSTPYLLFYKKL
Ubiquitin carboxyl-terminal hydrolase 1/WD repeat-containing protein 48, sequence (Q8TAF3 whole entry): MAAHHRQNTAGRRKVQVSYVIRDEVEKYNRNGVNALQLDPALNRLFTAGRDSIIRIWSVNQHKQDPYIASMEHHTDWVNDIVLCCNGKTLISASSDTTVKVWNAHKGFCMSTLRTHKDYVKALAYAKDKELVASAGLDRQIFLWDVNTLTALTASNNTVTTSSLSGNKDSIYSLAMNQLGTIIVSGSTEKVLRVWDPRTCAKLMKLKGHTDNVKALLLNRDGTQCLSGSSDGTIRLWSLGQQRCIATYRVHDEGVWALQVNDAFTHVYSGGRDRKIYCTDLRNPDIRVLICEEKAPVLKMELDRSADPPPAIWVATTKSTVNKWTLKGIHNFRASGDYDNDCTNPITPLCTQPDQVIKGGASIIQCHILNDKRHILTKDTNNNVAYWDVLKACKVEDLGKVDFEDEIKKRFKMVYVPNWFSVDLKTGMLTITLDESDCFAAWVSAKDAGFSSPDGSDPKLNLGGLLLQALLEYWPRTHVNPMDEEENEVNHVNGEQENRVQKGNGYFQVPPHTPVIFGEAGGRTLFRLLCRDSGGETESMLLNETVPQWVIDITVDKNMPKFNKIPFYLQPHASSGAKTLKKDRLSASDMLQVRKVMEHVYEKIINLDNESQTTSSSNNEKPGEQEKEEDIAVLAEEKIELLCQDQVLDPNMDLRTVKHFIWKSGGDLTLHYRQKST

In the case of `COc1cnc(-c2cccnc2C(C)C)nc1NCc1ccc(-c2nc(C(F)(F)F)cn2C)cc1` [US20250289799, Example 157], the pIC50 was 8.54.

Compound `COc1cnc(-c2cccnc2C(C)C)nc1NCc1ccc(-n2nc(C(F)(F)F)cc2C)cc1` [US20250289799, Example 158] showed a negative-log IC50 (pIC50) of 8.68. Turning to `COc1cnc(-c2ccccc2N(C)C)nc1NCc1ccc(-c2nc(C(F)(F)F)cn2C)cc1` [US20250289799, Example 159], the pIC50 is 8.77. Turning to `COc1cnc(-c2ccccc2N(C)C)nc1NCc1ccc(-n2nc(C(F)(F)F)cc2C)cc1` [US20250289799, Example 160], the pIC50 is 8.44. For `COc1cnc(-c2c(Cl)cnn2C(C)C)nc1N(C)CC1CCN(c2ccccn2)CC1` [US20250289799, Example 161], the pIC50 is 8.22. `COc1cnc(-c2c(Cl)cnn2C(C)C)nc1NCc1ccc(-c2ccccn2)cc1` [US20250289799, Example 162] had a pIC50 of 8.41. The compound `COc1cnc(-c2c(Cl)cnn2C(C)C)nc1NCC1CCN(c2nc(C(F)(F)F)cn2C)CC1` [US20250289799, Example 163] showed a pIC50 of 8.64. As for `COc1cnc(-c2c(Cl)cnn2C(C)C)nc1NCc1ccc(-c2nc(C(F)(F)F)cn2C)cc1` [US20250289799, Example 164], the pIC50 is 8.96. In the case of `COc1cnc(-c2c(Cl)cnn2C(C)C)nc1NCc1ccc(-n2nc(C(F)(F)F)cc2C)cc1` [US20250289799, Example 165] it was 8.85.

In turn, `CC(C)n1ncc(Cl)c1-c1nc(NCc2ccc(-c3ccccn3)cc2)c2occc2n1` [US20250289799, Example 166] had a pIC50 of 8.68. In the case of `CC(C)n1ncc(Cl)c1-c1nc(NCc2ccc(-c3nc(C(F)(F)F)cn3C)cc2)c2occc2n1` [US20250289799, Example 167] it was 9.35; in that of `Cc1cc(C(F)(F)F)nn1-c1ccc(CNc2nc(-c3c(Cl)cnn3C(C)C)nc3ccoc23)cc1` [US20250289799, Example 168], 8.92; in that of `COc1cnc(-c2ccccc2C2CC2)nc1NCc1ccc(-c2nc(C(F)(F)F)cn2C)cc1` [US20250289799, Example 169], 9.10. On to `COc1cnc(-c2ccccc2C2CC2)nc1NCc1ccc(-n2nc(C(F)(F)F)cc2C)cc1` [US20250289799, Example 170], for which the pIC50 is 8.54.

For the compound `COc1cc(-c2nc(C(F)(F)F)cn2C)ccc1CNc1nc(-c2ccccc2C2CC2)ncc1OC` [US20250289799, Example 171], the pIC50 was 8.64. The pIC50 values of the last two compounds are within 0.2 log units of each other.

For the compound `COc1cc(CNc2nc(-c3ccccc3C3CC3)ncc2OC)ccc1-c1nc(C(F)(F)F)cn1C` [US20250289799, Example 172], the pIC50 is 7.92.

`Cn1cc(C(F)(F)F)nc1-c1ccc(CNc2nc(-c3ccccc3C3CC3)nc3ccoc23)cc1` [US20250289799, Example 173] gave a pIC50 of 9.00.

With `Cc1cc(C(F)(F)F)nn1-c1ccc(CNc2nc(-c3ccccc3C3CC3)nc3ccoc23)cc1` [US20250289799, Example 174], the pIC50 was 8.29. In the case of `COc1cc(-c2nc(C(F)(F)F)cn2C)ccc1CNc1nc(-c2ccccc2C2CC2)nc2ccoc12` [US20250289799, Example 175] it was 8.44; in that of `COc1cc(CNc2nc(-c3ccccc3C3CC3)nc3ccoc23)ccc1-c1nc(C(F)(F)F)cn1C` [US20250289799, Example 176], 8.40. Regarding `COc1cnc(-c2c(OC)cnn2C(C)C)nc1N(C)CC1CCN(c2ccccn2)CC1` [US20250289799, Example 177], the pIC50 was 7.12. For the compound `COc1cnc(-c2c(OC)cnn2C(C)C)nc1NCc1ccc(-c2ccccn2)cc1` [US20250289799, Example 178], the pIC50 was 6.96. Take `COc1cnc(-c2c(OC)cnn2C(C)C)nc1NCC1CCN(c2nc(C(F)(F)F)cn2C)CC1` [US20250289799, Example 179]: the pIC50 is 7.25. To `COc1cnc(-c2c(OC)cnn2C(C)C)nc1NCc1ccc(-c2nc(C(F)(F)F)cn2C)cc1` [US20250289799, Example 180] belongs 7.82; to `COc1cnn(C(C)C)c1-c1nc(NCc2ccc(-c3ccccn3)cc2)c2occc2n1` [US20250289799, Example 181], 7.57. In the case of `COc1cnn(C(C)C)c1-c1nc(NCc2ccc(-n3nc(C(F)(F)F)cc3C)cc2)c2occc2n1` [US20250289799, Example 182] it was 8.13. Compound `COc1cnc(-c2c(OC)cnn2C2CC2)nc1NCc1ccc(-c2ccccn2)cc1` [US20250289799, Example 183] had a negative logarithm of the IC50 (pIC50) of 6.79.

Regarding `COc1cnc(-c2c(OC)cnn2C2CC2)nc1NCC1CCN(c2nc(C(F)(F)F)cn2C)CC1` [US20250289799, Example 184], the pIC50 was 7.03. `COc1cnn(C2CC2)c1-c1ncc(OC(F)F)c(NCc2ccc(-c3nc(C(F)(F)F)cn3C)cc2)n1` [US20250289799, Example 185]: the negative logarithm of the IC50 (pIC50) is 8.01. This pIC50 lies 0.98 log units higher than the previous one. `COc1cnc(-c2c(C)noc2C(C)C)nc1N(C)CC1CCN(c2ccccn2)CC1` [US20250289799, Example 186] showed a pIC50 of 7.18. For the compound `COc1cnc(-c2c(C)noc2C(C)C)nc1NCC1CCN(c2nc(C(F)(F)F)cn2C)CC1` [US20250289799, Example 187], the pIC50 is 7.63.

In the case of `COc1cnc(-c2c(C)noc2C(C)C)nc1NCc1ccc(-c2nc(C(F)(F)F)cn2C)cc1` [US20250289799, Example 188], the pIC50 was 7.82. The pIC50 values of the last two compounds are within 0.2 log units of each other. `Cc1noc(C(C)C)c1-c1nc(NCc2ccc(-c3ccccn3)cc2)c2occc2n1` [US20250289799, Example 189] had a pIC50 of 7.80. In turn, `Cc1noc(C(C)C)c1-c1ncc(OC(F)F)c(NCc2ccc(-c3nc(C(F)(F)F)cn3C)cc2)n1` [US20250289799, Example 190] gave a pIC50 of 7.48. Regarding `COc1cnc(-c2c(Cl)cnn2C2CC2)nc1N(C)Cc1ccc(-c2nc(C(F)(F)F)cn2C)cc1` [US20250289799, Example 191], the pIC50 was 8.37. `COc1cnc(-c2c(Cl)cnn2C2CC2)nc1NCc1ccc(-c2nc(C(F)(F)F)cn2C)cc1` [US20250289799, Example 192] gave a negative logarithm of the IC50 (pIC50) of 8.42. In the case of `COc1cnc(-c2cncnc2C2CC2)nc1N(C)Cc1ccc(-c2nc(C(F)(F)F)cn2C)cc1` [US20250289799, Example 193] it was 7.06. Compound `COc1cnc(-c2cncnc2C2CC2)nc1NCc1ccc(-c2nc(C(F)(F)F)cn2C)cc1` [US20250289799, Example 194] had a pIC50 of 7.29. `COc1cnc(-c2cncnc2C2CC2)nc1NCc1ccc(-c2nc(C(F)F)cn2C)cc1` [US20250289799, Example 195]: the negative logarithm of the IC50 (pIC50) is 6.61. For `Cn1cc(C(F)(F)F)nc1-c1ccc(CNc2nc(-c3cncnc3C3CC3)nc3ccoc23)cc1` [US20250289799, Example 196], the pIC50 is 7.92. This pIC50 is 1.31 log units higher than that of the compound before. Regarding `Cn1cc(C(F)F)nc1-c1ccc(CNc2nc(-c3cncnc3C3CC3)nc3ccoc23)cc1` [US20250289799, Example 197], the pIC50 is 6.88. To `COc1cnc(-c2c(C)cnn2C2CC2)nc1N(C)Cc1ccc(-c2nc(C(F)(F)F)cn2C)cc1` [US20250289799, Example 198] belongs 8.49; to `COc1cnc(-c2c(C)cnn2C2CC2)nc1NCc1ccc(-c2nc(C(F)(F)F)cn2C)cc1` [US20250289799, Example 199], 8.25; to `COc1cnc(-c2c(C)cnn2C(C)C)nc1N(C)Cc1ccc(-c2nc(C(F)(F)F)cn2C)cc1` [US20250289799, Example 200], 8.55. `COc1cnc(-c2c(C)cnn2C(C)C)nc1N(C)Cc1ccc(-n2nc(C(F)(F)F)cc2C)cc1` [US20250289799, Example 201] had a pIC50 of 7.92.

In turn, `COc1cnc(-c2c(C)cnn2C(C)C)nc1NCc1ccc(-c2nc(C(F)(F)F)cn2C)cc1` [US20250289799, Example 202] had a negative-log IC50 (pIC50) of 8.52. For the compound `C#Cc1cnc(-c2c(C)cnn2C(C)C)nc1NCc1ccc(-c2nc(C(F)(F)F)cn2C)cc1` [US20250289799, Example 203], the pIC50 is 8.85. The compound `COc1cnc(-c2c(OC)ncnc2C2CC2)nc1N(O)Cc1ccc(-c2nc(C(F)(F)F)cn2C)cc1` [US20250289799, Example 204] gave a pIC50 of 7.60. In the case of `COc1cnc(-c2c(C)cnn2C2CC2)nc1N(O)Cc1ccc(-c2nc(C(F)(F)F)cn2C)cc1` [US20250289799, Example 205] it was 7.37; in that of `COc1cnc(-c2c(OC)ncnc2C2CC2)nc1N(C#N)Cc1ccc(-c2nc(C(F)(F)F)cn2C)cc1` [US20250289799, Example 206], 8.46.

`COc1cnc(-c2c(OC)ncnc2C2CC2)nc1N(C)CC12C3C4C1C1C2C3C41c1nc(C(F)(F)F)cn1C` (stereo not given) [US20250289799, Example 207] had a pIC50 of 8.46. In the case of `COc1cnc(-c2c(Cl)cnn2C(C)C)nc1NCC12CCC(c3nc(C(F)(F)F)cn3C)(CC1)OC2` [US20250289799, Example 209], the pIC50 is 8.80. This pIC50 is 0.34 log units higher than that of the compound before. In turn, `COc1cnc(-c2c(Cl)cnn2C(C)C)nc1N(C)CC12CCC(c3nc(C(F)(F)F)cn3C)(CC1)OC2` [US20250289799, Example 211] gave a pIC50 of 8.21.

Turning to `COc1cnc(-c2c(OC)ncnc2C2CC2)nc1N(C)CC12CCC(c3nc(C(F)(F)F)cn3C)(CC1)OC2` [US20250289799, Example 212], the pIC50 was 7.72. In the case of `COc1cnc(-c2c(OC)ncnc2C2CC2)nc1NCC12C3C4C1C1C2C3C41c1nc(C(F)(F)F)cn1C1CC1` (stereo not given) [US20250289799, Example 216] it was 8.85.
